# Data from publication PMC5218480 (PLoS ONE, 2017).
# Tested on: MV-4-11 cells
# Experiment: Gene expression microarray analysis (Affymetrix PrimeView) and GSEA
# Format: cell-based, human
# Set-up: RFU PODN (11730768_x_at) / Fold change /veh PODN (11730768_x_at) / RFU LINC00158 (11744669_a_at) / Fold change /veh LINC00158 (11744669_a_at) / RFU DUSP10 (11751237_a_at) / Fold change /veh DUSP10 (11751237_a_at) / RFU ID3 (11757404_x_at) / Fold change /veh ID3 (11757404_x_at) / RFU PLEKHG5 (11737974_s_at) / Fold change /veh PLEKHG5 (11737974_s_at) / RFU LRRC4B (11730491_at) / Fold change /veh LRRC4B (11730491_at) / RFU GIMAP4 (11747438_a_at) / Fold change /veh GIMAP4 (11747438_a_at) / RFU KRT8 (11758183_x_at) / Fold change /veh KRT8 (11758183_x_at) / RFU CNN1 (11734310_a_at) / Fold change /veh CNN1 (11734310_a_at) / RFU VPS37D (11726825_at) / Fold change /veh VPS37D (11726825_at) / RFU C10orf10 (11716522_x_at) / Fold change /veh C10orf10 (11716522_x_at) / RFU KIR2DL2 /// KIR2DL4 /// KIR2DL5A /// KIR2DL5B /// KIR2DS1 /// KIR2DS2 /// KIR2DS3 /// KIR2DS4 /// KIR3DL3 /// KIR3DL3 /// KIR3DS1 (11738374_at) / Fold change /veh KIR2DL2 /// KIR2DL4 /// KIR2DL5A /// KIR2DL5B /// KIR2DS1 /// KIR2DS2 /// KIR2DS3 /// KIR2DS4 /// KIR3DL3 /// KIR3DL3 /// KIR3DS1 (11738374_at) / RFU C1QL1 (11718748_at) / Fold change /veh C1QL1 (11718748_at) / RFU TMPRSS4 (11747572_a_at) / Fold change /veh TMPRSS4 (11747572_a_at) / RFU HAMP (11756126_x_at) / Fold change /veh HAMP (11756126_x_at) / RFU RNFT2 (11725882_a_at) / Fold change /veh RNFT2 (11725882_a_at) / RFU NR4A2 (11747474_a_at) / Fold change /veh NR4A2 (11747474_a_at) / RFU ABCC12 (11746883_a_at) / Fold change /veh ABCC12 (11746883_a_at) / RFU TMEM136 (11760407_x_at) / Fold change /veh TMEM136 (11760407_x_at) / RFU CLDN22 /// WWC2 (11732394_at) / Fold change /veh CLDN22 /// WWC2 (11732394_at) / RFU HLA-DPB1 (11760878_x_at) / Fold change /veh HLA-DPB1 (11760878_x_at) / RFU SPINT1 (11716480_a_at) / Fold change /veh SPINT1 (11716480_a_at) / RFU GAP43 (11754022_s_at) / Fold change /veh GAP43 (11754022_s_at) / RFU A4GNT (11735810_at) / Fold change /veh A4GNT (11735810_at) / RFU PRB3 (11715151_x_at) / Fold change /veh PRB3 (11715151_x_at) / RFU TUBB4B (11761932_at) / Fold change /veh TUBB4B (11761932_at) / RFU CAPN14 (11732068_a_at) / Fold change /veh CAPN14 (11732068_a_at) / RFU TMCC2 (11721928_a_at) / Fold change /veh TMCC2 (11721928_a_at) / RFU IRGQ (11745062_a_at) / Fold change /veh IRGQ (11745062_a_at) / RFU FAM174B (11720279_a_at) / Fold change /veh FAM174B (11720279_a_at) / RFU TMPRSS4 (11748680_a_at) / Fold change /veh TMPRSS4 (11748680_a_at) / RFU FAM212B (11763350_a_at) / Fold change /veh FAM212B (11763350_a_at) / RFU PLEKHG5 (11743358_a_at) / Fold change /veh PLEKHG5 (11743358_a_at) / RFU ZSCAN30 (11745921_a_at) / Fold change /veh ZSCAN30 (11745921_a_at) / RFU CMKLR1 (11741424_a_at) / Fold change /veh CMKLR1 (11741424_a_at) / RFU LOC101060620 /// MAPK8IP1 (11723275_at) / Fold change /veh LOC101060620 /// MAPK8IP1 (11723275_at) / RFU SPTSSB (11747773_x_at) / Fold change /veh SPTSSB (11747773_x_at) / RFU PRSS12 (11739890_at) / Fold change /veh PRSS12 (11739890_at) / RFU BIN1 (11741810_x_at) / Fold change /veh BIN1 (11741810_x_at) / RFU WNT11 (11732464_a_at) / Fold change /veh WNT11 (11732464_a_at) / RFU C10orf10 (11716521_a_at) / Fold change /veh C10orf10 (11716521_a_at) / RFU C5orf56 (11738089_at) / Fold change /veh C5orf56 (11738089_at) / RFU CYB561 (11721691_x_at) / Fold change /veh CYB561 (11721691_x_at) / RFU ANKRD19P (11752326_a_at) / Fold change /veh ANKRD19P (11752326_a_at) / RFU OR2T12 /// OR2T33 /// OR2T8 (11738714_s_at) / Fold change /veh OR2T12 /// OR2T33 /// OR2T8 (11738714_s_at) / RFU VCAN (11748164_a_at) / Fold change /veh VCAN (11748164_a_at) / RFU JSRP1 (11732532_at) / Fold change /veh JSRP1 (11732532_at) / RFU KRTAP10-11 (11738290_x_at) / Fold change /veh KRTAP10-11 (11738290_x_at) / RFU MYO3A (11730013_a_at) / Fold change /veh MYO3A (11730013_a_at) / RFU EBF3 (11725865_a_at) / Fold change /veh EBF3 (11725865_a_at) / RFU CAMK2N1 (11719241_x_at) / Fold change /veh CAMK2N1 (11719241_x_at) / RFU C5orf56 (11738088_a_at) / Fold change /veh C5orf56 (11738088_a_at) / RFU OLFML3 (11715873_a_at) / Fold change /veh OLFML3 (11715873_a_at) / RFU LOC100653217 /// NTM (11731650_a_at) / Fold change /veh LOC100653217 /// NTM (11731650_a_at) / RFU MAPK11 (11762145_a_at) / Fold change /veh MAPK11 (11762145_a_at) / RFU FIZ1 (11724087_x_at) / Fold change /veh FIZ1 (11724087_x_at) / RFU OASL (11726364_x_at) / Fold change /veh OASL (11726364_x_at) / RFU SOX15 (11748057_x_at) / Fold change /veh SOX15 (11748057_x_at) / RFU CD79A (11719716_a_at) / Fold change /veh CD79A (11719716_a_at) / RFU HIST1H1D (11736915_at) / Fold change /veh HIST1H1D (11736915_at) / RFU CASKIN2 (11723855_a_at) / Fold change /veh CASKIN2 (11723855_a_at) / RFU LOC730098 (11760151_x_at) / Fold change /veh LOC730098 (11760151_x_at) / RFU OR4N2 (11742367_at) / Fold change /veh OR4N2 (11742367_at) / RFU PRRT2 (11749266_a_at) / Fold change /veh PRRT2 (11749266_a_at) / RFU SNX32 (11753110_a_at) / Fold change /veh SNX32 (11753110_a_at) / RFU CDHR5 (11726645_a_at) / Fold change /veh CDHR5 (11726645_a_at) / RFU RCAN1 (11760418_a_at) / Fold change /veh RCAN1 (11760418_a_at) / RFU FAM167A (11723789_a_at) / Fold change /veh FAM167A (11723789_a_at) / RFU FAM26E (11764081_at) / Fold change /veh FAM26E (11764081_at) / RFU ISYNA1 (11749810_s_at) / Fold change /veh ISYNA1 (11749810_s_at) / RFU ACY1 (11761880_at) / Fold change /veh ACY1 (11761880_at) / RFU 11764098_at / Fold change /veh 11764098_at / RFU SAMD14 (11745864_x_at) / Fold change /veh SAMD14 (11745864_x_at) / RFU NPB (11741838_a_at) / Fold change /veh NPB (11741838_a_at) / RFU TMPRSS6 (11731388_a_at) / Fold change /veh TMPRSS6 (11731388_a_at) / RFU KRTAP10-2 (11738614_at) / Fold change /veh KRTAP10-2 (11738614_at) / RFU ARHGAP8 /// PRR5-ARHGAP8 (11727945_x_at) / Fold change /veh ARHGAP8 /// PRR5-ARHGAP8 (11727945_x_at) / RFU KRTAP5-7 /// NADSYN1 (11734609_at) / Fold change /veh KRTAP5-7 /// NADSYN1 (11734609_at) / RFU RASL12 (11751679_a_at) / Fold change /veh RASL12 (11751679_a_at) / RFU CDKN2B (11736163_a_at) / Fold change /veh CDKN2B (11736163_a_at) / RFU PRF1 (11729649_at) / Fold change /veh PRF1 (11729649_at) / RFU, ZNF638 /// ZNF638-IT1 / Fold change vs veh, ZNF638 /// ZNF638-IT1 / RFU, PANK3 / Fold change vs veh, PANK3 / RFU, SH3YL1 / Fold change vs veh, SH3YL1 / RFU, ZEB2 / Fold change vs veh, ZEB2 / RFU, NRIP1 / Fold change vs veh, NRIP1 / RFU, PTTG1IP / Fold change vs veh, PTTG1IP / RFU, CAPN2 / Fold change vs veh, CAPN2 / RFU, MED14 / Fold change vs veh, MED14 / RFU, SNORA58 / Fold change vs veh, SNORA58 / RFU, C1orf63 / Fold change vs veh, C1orf63 / RFU, LRRFIP1 / Fold change vs veh, LRRFIP1 / RFU, NDUFAF7 / Fold change vs veh, NDUFAF7 / RFU, SLC12A2 / Fold change vs veh, SLC12A2 / RFU, IBTK / Fold change vs veh, IBTK / RFU, ESF1 / Fold change vs veh, ESF1 / Fold change vs veh, TMEM50B / RFU, TAOK1 / Fold change vs veh, TAOK1 / RFU, ACBD3 / Fold change vs veh, ACBD3 / RFU, TMA16 / Fold change vs veh, TMA16 / RFU, RWDD3 / Fold change vs veh, RWDD3 / RFU, BCAT1 / Fold change vs veh, BCAT1 / RFU, EDEM3 / Fold change vs veh, EDEM3 / RFU, TMEM33 / Fold change vs veh, TMEM33 / RFU, WDR75 / Fold change vs veh, WDR75 / RFU, AHCTF1 / Fold change vs veh, AHCTF1 / RFU, TFRC / Fold change vs veh, TFRC / RFU, ZDHHC17 / Fold change vs veh, ZDHHC17 / RFU, NOM1 / Fold change vs veh, NOM1 / RFU, ARL8B / Fold change vs veh, ARL8B / RFU, ZBTB11 / Fold change vs veh, ZBTB11 / RFU, TAMM41 / Fold change vs veh, TAMM41 / RFU, KIAA1704 /// LOC100996395 / Fold change vs veh, KIAA1704 /// LOC100996395 / RFU, ING1 / Fold change vs veh, ING1 / RFU, TRMT61B / Fold change vs veh, TRMT61B / RFU, FUBP3 / Fold change vs veh, FUBP3 / RFU, TP53 / Fold change vs veh, TP53 / RFU, TNKS2 / Fold change vs veh, TNKS2 / RFU, ZFP14 / Fold change vs veh, ZFP14 / RFU, ACTR2 / Fold change vs veh, ACTR2 / RFU, PPP3R1 / Fold change vs veh, PPP3R1 / RFU, PIK3R1 / Fold change vs veh, PIK3R1 / RFU, HNRNPA1 / Fold change vs veh, HNRNPA1 / RFU, RNF170 / Fold change vs veh, RNF170 / RFU, ZNF28 / Fold change vs veh, ZNF28 / RFU, RNGTT / Fold change vs veh, RNGTT / RFU, OGT / Fold change vs veh, OGT / RFU, BRD1 / Fold change vs veh, BRD1 / RFU, MARS / Fold change vs veh, MARS / RFU, ZNF655 / Fold change vs veh, ZNF655 / RFU, FAHD1 / Fold change vs veh, FAHD1 / RFU, BDP1 / Fold change vs veh, BDP1 / RFU, LRRCC1 / Fold change vs veh, LRRCC1 / RFU, ARID1A / Fold change vs veh, ARID1A / RFU, ZNF146 / Fold change vs veh, ZNF146 / RFU, ZNF330 / Fold change vs veh, ZNF330 / RFU, GPN3 / Fold change vs veh, GPN3 / RFU, C9orf123 / Fold change vs veh, C9orf123 / RFU, N4BP2L2 / Fold change vs veh, N4BP2L2 / RFU, ARFIP1 / Fold change vs veh, ARFIP1 / RFU, FAM179B / Fold change vs veh, FAM179B / RFU, BCL10 / Fold change vs veh, BCL10 / RFU, UHRF1BP1L / Fold change vs veh, UHRF1BP1L / RFU, BET1 / Fold change vs veh, BET1 / RFU, CNOT2 / Fold change vs veh, CNOT2 / RFU, ZNF268 / Fold change vs veh, ZNF268 / Fold change vs veh, ZNF507 / RFU, DGCR2 / Fold change vs veh, DGCR2 / RFU, WDSUB1 / Fold change vs veh, WDSUB1 / Fold change vs veh, HSP90B1 /// MIR3652 / RFU, ADSS / Fold change vs veh, ADSS / RFU, GK / Fold change vs veh, GK / RFU, ZNF148 / Fold change vs veh, ZNF148 / RFU, TAF9 / Fold change vs veh, TAF9 / RFU, SLC1A5 / Fold change vs veh, SLC1A5 / RFU, SLMO2 / Fold change vs veh, SLMO2 / RFU, ABCC4 / Fold change vs veh, ABCC4 / RFU, LOC101060439 /// RAP1B / Fold change vs veh, LOC101060439 /// RAP1B / RFU, RFX7 / Fold change vs veh, RFX7 / RFU, GTPBP10 / Fold change vs veh, GTPBP10 / RFU, CNEP1R1 / Fold change vs veh, CNEP1R1 / RFU, BIVM-ERCC5 /// ERCC5 / Fold change vs veh, BIVM-ERCC5 /// ERCC5 / RFU, ILF3 / Fold change vs veh, ILF3 / RFU 11762660_at / Fold change /veh 11762660_at / RFU VCAN (11757783_s_at) / Fold change /veh VCAN (11757783_s_at) / RFU DDX43 (11728927_at) / Fold change /veh DDX43 (11728927_at) / RFU KRT8 (11758188_x_at) / Fold change /veh KRT8 (11758188_x_at) / RFU NKD1 (11759106_at) / Fold change /veh NKD1 (11759106_at) / RFU SRD5A1 (11742802_a_at) / Fold change /veh SRD5A1 (11742802_a_at) / RFU TPSAB1 /// TPSB2 (11721975_s_at) / Fold change /veh TPSAB1 /// TPSB2 (11721975_s_at) / RFU GSTM3 (11746129_a_at) / Fold change /veh GSTM3 (11746129_a_at) / RFU IL23R (11737362_x_at) / Fold change /veh IL23R (11737362_x_at) / RFU TMEM51 (11727254_a_at) / Fold change /veh TMEM51 (11727254_a_at) / RFU PIWIL2 (11732686_x_at) / Fold change /veh PIWIL2 (11732686_x_at) / RFU ORM1 (11744905_x_at) / Fold change /veh ORM1 (11744905_x_at) / RFU CCDC152 (11743942_at) / Fold change /veh CCDC152 (11743942_at) / RFU ECM1 (11717891_a_at) / Fold change /veh ECM1 (11717891_a_at) / RFU IL23R (11748794_a_at) / Fold change /veh IL23R (11748794_a_at) / RFU TNFAIP8L3 (11732012_x_at) / Fold change /veh TNFAIP8L3 (11732012_x_at) / RFU MBOAT4 (11741988_at) / Fold change /veh MBOAT4 (11741988_at) / RFU 11764193_at / Fold change /veh 11764193_at / RFU TMEM53 (11763286_at) / Fold change /veh TMEM53 (11763286_at) / RFU MAGEB2 (11727129_at) / Fold change /veh MAGEB2 (11727129_at) / RFU TMEM200A (11744735_a_at) / Fold change /veh TMEM200A (11744735_a_at) / RFU CCDC152 (11751479_a_at) / Fold change /veh CCDC152 (11751479_a_at) / RFU FAM211A (11726209_a_at) / Fold change /veh FAM211A (11726209_a_at) / RFU RGS16 (11746705_a_at) / Fold change /veh RGS16 (11746705_a_at) / RFU VCAN (11755009_s_at) / Fold change /veh VCAN (11755009_s_at) / RFU RHOB (11743442_s_at) / Fold change /veh RHOB (11743442_s_at) / RFU RGS16 (11720943_a_at) / Fold change /veh RGS16 (11720943_a_at) / RFU RGS16 (11720944_at) / Fold change /veh RGS16 (11720944_at) / RFU, VPS4B / Fold change vs veh, VPS4B / RFU, CREB1 / Fold change vs veh, CREB1 / RFU, DNAJC13 / Fold change vs veh, DNAJC13 / RFU, GNAQ / Fold change vs veh, GNAQ / RFU, CDK5R1 / Fold change vs veh, CDK5R1 / RFU, ZRANB3 / Fold change vs veh, ZRANB3 / RFU, CUL4A / Fold change vs veh, CUL4A / RFU, CCNY / Fold change vs veh, CCNY / RFU, UFL1 / Fold change vs veh, UFL1 / RFU, COG3 / Fold change vs veh, COG3 / RFU, DIAPH2 / Fold change vs veh, DIAPH2 / RFU, SKA2 / Fold change vs veh, SKA2 / RFU, AFF3 / Fold change vs veh, AFF3 / RFU, LMF1 / Fold change vs veh, LMF1 / RFU, IPO11 / Fold change vs veh, IPO11 / RFU, DFFB / Fold change vs veh, DFFB / RFU, FOXP1 / Fold change vs veh, FOXP1 / RFU, CARD8 / Fold change vs veh, CARD8 / RFU, STRN3 / Fold change vs veh, STRN3 / RFU, ADK / Fold change vs veh, ADK / RFU, RASSF2 / Fold change vs veh, RASSF2 / RFU, WIPF1 / Fold change vs veh, WIPF1 / RFU, LARP1B / Fold change vs veh, LARP1B / RFU, RASA1 / Fold change vs veh, RASA1 / RFU, RB1 / Fold change vs veh, RB1 / RFU, PPFIA1 / Fold change vs veh, PPFIA1 / RFU, MAT2A / Fold change vs veh, MAT2A / RFU, CCT5 / Fold change vs veh, CCT5 / RFU, WDR92 / Fold change vs veh, WDR92 / RFU, CUX1 / Fold change vs veh, CUX1 / RFU, TTC7A / Fold change vs veh, TTC7A / RFU, TMEM135 / Fold change vs veh, TMEM135 / RFU, DEPTOR / Fold change vs veh, DEPTOR / RFU, CPM / Fold change vs veh, CPM / RFU, DNAJB6 / Fold change vs veh, DNAJB6 / RFU, CACNA2D3 / Fold change vs veh, CACNA2D3 / RFU, DTX4 / Fold change vs veh, DTX4 / RFU, TFCP2 / Fold change vs veh, TFCP2 / RFU, GMCL1 /// GMCL1P1 / Fold change vs veh, GMCL1 /// GMCL1P1 / RFU, AEBP2 / Fold change vs veh, AEBP2 / RFU, SNHG1 /// SNORD22 /// SNORD25 /// SNORD26 /// SNORD27 /// SNORD28 /// SNORD29 /// SNORD31 / Fold change vs veh, SNHG1 /// SNORD22 /// SNORD25 /// SNORD26 /// SNORD27 /// SNORD28 /// SNORD29 /// SNORD31 / Fold change (Aza/veh), C12orf56 (ProbeSet 11735607_a_at) / Fold change (ACY-1035/veh), C12orf56 (ProbeSet 11735607_a_at) / Fold change (Aza/veh), FGFR1OP (ProbeSet 11751329_s_at) / Fold change (ACY-1035/veh), FGFR1OP (ProbeSet 11751329_s_at) / Fold change (Aza/veh), VPS36 (ProbeSet 11739960_a_at) / Fold change (ACY-1035/veh), VPS36 (ProbeSet 11739960_a_at) / RFU SYPL1 (11715823_x_at) / Fold change /veh SYPL1 (11715823_x_at) / RFU IGFBP7 (11715501_s_at) / Fold change /veh IGFBP7 (11715501_s_at) / RFU REEP3 (11722064_at) / Fold change /veh REEP3 (11722064_at) / RFU IGLL1 (11728026_x_at) / Fold change /veh IGLL1 (11728026_x_at): dose or concentration left out as unconfirmed
# Conditions: MV-4-11 cells, 48 hours
structure (smiles),measurement,value
Nc1ncn([C@@H]2O[C@H](CO)[C@@H](O)[C@H]2O)c(=O)n1 [azacitidine],Fold change /veh 11764098_at,1.18
